Source: patent US20230023332A1, “OLEAN-PHENYLACRYLAMIDE DERIVATIVE, METHOD FOR PREPARING SAME, AND USE THEREOF” (Lunan Pharmaceutical Group Corporation, priority 2019, published 2023)
Like-named read-outs stand apart in the source and are kept apart here.

Tests used:
[1] = test system: human renal tubular epithelial cells HK-2; assay: MTT proliferation inhibition / toxicity, HK-2; assay type: cell-based; settings: for IC50: HK-2 cells, MTT, 48 h, read-out: Inhibitory activity (IC50) against proliferation, HK-2; for toxicity to human renal tubular epithelial cells HK-2: statement in words
Description: (§1) The anti-tumor activity of the compounds of the present invention was determined by the method of methyl thiazolyl tetrazolium (MTT), Bardoxolone Methyl (CDDO-Me) being selected as a positive control medicament.
(§2) Instruments: ultra-clean bench (SW-CJ-1FD, AIRTECH, Suzhou Antai Airtech Co. Ltd.), constant-temperature CO2 incubator (3111, Thermo, USA), inverted biomicroscope (IX71, OLYMPUS, Japan), ELISA microplate reader (Model 680, BIO-RAD, USA), platform shaker (Kylin-bell lab Instruments), autoclave (YXO.SG4I.280, Shanghai Huaxian), and centrifuge (SIGMA).
(§3) Reagents: DMEM (GIBCO), fetal bovine serum (GIBCO), trypsin (SIGMA), and DMSO (SIGMA).
(§4) Cell strains: human non-small cell lung cancer cell strain A549, human liver cancer cell strain HepG2, human breast cancer cell strain MCF-7, human renal tubular epithelial cells HK-2, rat embryonic cardiomyocytes H9C2 (all provided by Jiangsu KeyGEN BioTECH Co., Ltd.).
(§5) Methods: the cryopreserved cell strains were resuscitated and cultured in a CO2 incubator at a constant temperature of 37° C. with liquid being changed once daily. Plating was carried out when the cell strains were in a good state in the exponential phase. 1 mL of 0.25% trypsin solution was added for digestion for 1-2 min. The cell status was observed under the microscope, and when the adherent cells became round and shrunk, the digestion solution was aspirated and 1-2 mL of a DMEM medium containing 10% fetal bovine serum was added to obtain a cell suspension, on which a cell count was performed. The amount of required cell suspension was calculated on the basis of 5×10^4 cells per well and the total number of wells. The cell suspension was inoculated on a 96-well plate at 100 μL/well, the surroundings being blocked with PBS, followed by incubation in a CO2 incubator at a constant temperature of 37° C. for 24 h.
(§6) The test medicament, positive control medicament CDDO-Me, and blank control group DMSO were prepared in DMEM media to a final concentration of 5 μM/well, each medicament being placed in 3 replicate wells, followed by incubation for 48 h. The MTT reagent was added to the 96-well plate at 10 μL/well to further incubate for 4 h. The medium in the plate was aspirated and 100 μL of DMSO was added to each well, followed by shaking on the platform shaker for 10 min such that the crystals were dissolved. The absorbance of each well was examined by the ELISA microplate reader at a wavelength of 570 nm, and the cell inhibition rate was calculated according to the formula hereinafter. The mean value of three preliminary screening results was taken as the final inhibition rate thereof.
(§7) Cell inhibition rate (%)=[(OD value of blank control−OD value of dosing cohort)/OD value of blank control group]×100%

[2] = test system: human non-small cell lung cancer cell strain A549; assay: MTT proliferation inhibition, A549; assay type: cell-based; settings: A549 cells, 48 h, read-out: Inhibitory activity (IC50) against proliferation, A549
Description: as §1, §2, §3, §4, §5, §6, §7

[3] = test system: rat embryonic cardiomyocytes H9C2; assay: MTT proliferation inhibition / toxicity, H9C2; assay type: cell-based; settings: for IC50: H9C2 cardiomyocytes, MTT, 48 h, read-out: Inhibitory activity (IC50) against proliferation, H9C2; for inhibitory activity against normal cardiomyocytes H9C2 relative to CDDO-Me: fraction of the inhibitory activity of CDDO-Me
Description: as §1, §2, §3, §4, §5, §6, §7

M-MDSC, PMN-MDSC = assay: Spleen M-MDSC / PMN-MDSC by flow cytometry in S180 tumor-bearing mice; assay type: in vivo, ICR mice; settings: 7 days; for M-MDSC: CD11b+LY6Chi+; for PMN-MDSC: CD11b+LY6G+
Description: (§8) 1) Experimental animals: 72 female ICR mice between 6 and 8 weeks of age; experimental cells: S180 ascitic tumor cells.
(§9) 8 animals were used as the normal group, and the rest of the mice were subjected to modeling by the following method.
(§10) 2) Proliferation and passaging of S180 ascitic tumor cells: S180 ascitic tumor cells cryopreserved at −80° C. were thawed in a water bath at 37° C., placed in a 12 mL centrifuge tube, to which an appropriate amount of saline was added, and centrifuged at 1200 rpm for 5 min. The supernatant was discarded, then the cells were resuspended in 300 μL of saline and intraperitoneally injected into an ICR mouse. As the mouse's abdomen swelled up, intraperitoneal injection of the cells in a second ICR mouse was performed, and the cells were ready for inoculation when the abdomen thereof swelled up.
(§11) 3) Inoculation of S180 tumor cells in the armpit of mice: S180 cells cultured to 2 passages were centrifuged and saline was added to obtain a concentration of 1×10^7 cells/mL. A volume of 100 μL of the cells were injected subcutaneously into armpit of mice. A mouse tumor-bearing model was developed.
(§12) The model mice were divided into a tumor-bearing model group, a compound I-7 5 mg/kg group, a compound I-7 15 mg/kg group, a compound I-12 5 mg/kg group, a compound I-12 15 mg/kg group, a compound I-16 5 mg/kg group, a compound I-16 15 mg/kg group and a CDDO-Me 15 mg/kg group.
(§13) There were 8 mice in each group.
(§14) 4) Dosing: the medicaments were administered intragastrically when the tumor grew out.
(§15) An equal volume of 0.5% croscarmellose sodium was administered to the normal group and the model group.
(§16) The dosing was executed for 7 consecutive days. The mice were dissected the next day following the last dosing.
(§17) Testing items: the body weight, spleen weight and tumor weight were measured. The spleens were ground on ice, followed by red blood cell lysis and incubation with FITC-CD11b, LY6C, and LY6G antibodies for 15 min, and then tested for CD11b+LY6Chi+ and CD11b+LY6G+ with flow cytometry.

[4] = test system: human liver cancer cell strain HepG2; assay: MTT proliferation inhibition, HepG2; assay type: cell-based; settings: HepG2 cells, 48 h, read-out: Inhibitory activity (IC50) against proliferation, HepG2
Description: as §1, §2, §3, §4, §5
The MTT reagent was added to the 96-well plate at 10 μL/well to further incubate for 4 h. The medium in the plate was aspirated and 100 μL of DMSO was added to each well, followed by shaking on the platform shaker for 10 min such that the crystals were dissolved. […] The mean value of three preliminary screening results was taken as the final inhibition rate thereof.
as §7

S180 ascitic tumor cells = assay: Inhibitory effect on tumors in S180 tumor-bearing mice; assay type: in vivo, ICR mice; settings: for Tumor Mass / Tumor inhibition rate: 7 consecutive days; for Splenic index: 7 days
Description: as §8, §9, §10, §11, §12, §13, §14
Compound I-7 of 5 mg/kg was administered in the compound I-7 5 mg/kg group;
compound I-7 of 15 mg/kg was administered in the compound I-7 15 mg/kg group;
compound I-12 of 5 mg/kg was administered in the compound I-12 5 mg/kg group;
compound I-12 of 15 mg/kg was administered in the compound I-12 15 mg/kg group;
compound I-16 of 5 mg/kg was administered in the compound I-16 5 mg/kg group;
compound I-16 of 15 mg/kg was administered in the compound I-16 15 mg/kg group; and
CDDO-Me of 15 mg/kg was administered in the CDDO-Me 15 mg/kg group.
as §15, §16, §17

[5] = test system: human breast cancer cell strain MCF-7; assay: MTT proliferation inhibition, MCF-7; assay type: cell-based; settings: 48 h, read-out: Inhibitory activity (IC50) against proliferation, MCF-7
Description: as §1, §2, §3, §4, §5, §6, §7

[6] = Homo sapiens, MCF7, MCF-7 cells

| SMILES | IC50 [3] [µM] | M-MDSC (M-MDSC, PMN-MDSC; 15 mg/kg intragastric) [%] | PMN-MDSC (M-MDSC, PMN-MDSC; 15 mg/kg intragastric) [%] | Tumor Mass (S180 ascitic tumor cells; 15 mg/kg intragastric) [g] | Tumor inhibition rate (S180 ascitic tumor cells; 15 mg/kg intragastric) [%] | Splenic index (S180 ascitic tumor cells; 15 mg/kg intragastric) | IC50 ([1]; Homo sapiens) [nM] | toxicity to human renal tubular epithelial cells HK-2 [1] | IC50 ([2]; Homo sapiens) [nM] | inhibitory activity against normal cardiomyocytes H9C2 relative to CDDO-Me [3] | M-MDSC (M-MDSC, PMN-MDSC; 5 mg/kg intragastric) [%] | PMN-MDSC (M-MDSC, PMN-MDSC; 5 mg/kg intragastric) [%] | IC50 ([4]; Homo sapiens) [nM] | Tumor Mass (S180 ascitic tumor cells; 5 mg/kg intragastric) | Tumor inhibition rate (S180 ascitic tumor cells; 5 mg/kg intragastric) [%] | Splenic index (S180 ascitic tumor cells; 5 mg/kg intragastric) | IC50 [5, 6] [nM] | IC50 ([3]; Rattus norvegicus) [µM] | also measured |
| --- | --- | --- | --- | --- | --- | --- | --- | --- | --- | --- | --- | --- | --- | --- | --- | --- | --- | --- | --- |
| COC(=O)[C@]12CCC(C)(C)C[C@H]1[C@H]1C(=O)C=C3[C@@]4(C)C=C(C#N)C(=O)C(C)(C)[C@@H]4CC[C@@]3(C)[C@]1(C)CC2 [CDDO-Me, 2-cyano-3,12-dioxoolean-1,9(11)-dien-28-oic acid methyl ester, reference compound] | 0.308 ± 0.01 | 1.15 ± 0.12 | 10.91 ± 1.62 | 1.67 ± 0.14 | 36.75 | 53.61 ± 4.15 10*mg/g | – | – | – | – | – | – | – | – | – | – | – | – | IC50 [1]: 335 ± 34 nM; IC50 [2]: 448 ± 12 nM; IC50 [4]: 326 ± 21 nM; IC50 ([5]; MCF-7 cells): 728 ± 288 nM |
| CC1(C)CC[C@]2(NC(=O)/C(C#N)=C/c3ccccc3)CC[C@]3(C)[C@H](C(=O)C=C4[C@@]5(C)C=C(C#N)C(=O)C(C)(C)[C@@H]5CC[C@]43C)[C@@H]2C1 [Compound I-7] | 3.17 ± 1.74 | 0.59 ± 0.09 | 6.34 ± 1.47 | 1.45 ± 0.12 | 45.20 | 47.03 ± 6.54^##* 10*mg/g | 1780 ± 259 | lower toxicity | 315 ± 68 | approximately 1/10 | 0.68 ± 0.22 | 8.72 ± 1.13 | 2720 ± 36 | 1.53 ± 0.10 ^ g | 42.17 | 48.55 ± 4.62^##* 10*mg/g | 2225 ± 22 | – | IC50 ([3]; Rattus norvegicus, H9c2, 48 h): 3.18 ± 1.74 µM |
| CC1(C)CC[C@]2(NC(=O)/C(C#N)=C/c3ccc(Cl)cc3)CC[C@]3(C)[C@H](C(=O)C=C4[C@@]5(C)C=C(C#N)C(=O)C(C)(C)[C@@H]5CC[C@]43C)[C@@H]2C1 [Compound I-12] | – | 0.38 ± 0.23 | 4.82 ± 0.62 | 0.66 ± 0.14 | 74.96 | 44.37 ± 5.27^###** 10*mg/g | 2430 ± 33 | lower toxicity | 761 ± 32 | approximately 1/10 | 0.63 ± 0.13 | 8.86 ± 1.53 | 974 ± 58 | 1.33 ± 0.11 g | 49.55 | 45.99 ± 7.68^##* 10*mg/g | 1640 ± 462 | 3.14 ± 1.53 | – |
| CC1(C)CC[C@]2(NC(=O)/C=C(\C#N)c3ccc(C(F)(F)F)cc3)CC[C@]3(C)[C@H](C(=O)C=C4[C@@]5(C)C=C(C#N)C(=O)C(C)(C)[C@@H]5CC[C@]43C)[C@@H]2C1 [Compound I-16] | – | 0.40 ± 0.07 | 6.79 ± 1.55 | 0.96 ± 0.14 | 63.60 | 46.45 ± 5.20^###* 10*mg/g | 618 ± 72 | lower toxicity | 888 ± 21 | – | 0.71 ± 0.08 | 8.72 ± 2.09 | 934 ± 11 | 1.49 ± 0.17 ^ g | 43.69 | 47.86 ± 5.73^###* 10*mg/g | 958 ± 209 | 0.108 ± 0.007 | – |
